Calls of active or inactive are those of the source.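 How the source made its calls: active means EGR1 protein level in colon cancer cells shifted at least 30% from solvent-only cells, up or down; inactive means shift under 30% either way.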
molecular target: Early growth response protein 1 (Homo sapiens) (UniProt P18146); assay: altered EGR1 protein amount, SW620 – cell-based, SW620 colorectal carcinoma, chemiluminescent western blot, counter-screen for KLF5 inhibitor project, late-stage follow-up (AID 588665); conditions: SW620 EGR1 protein level, 24 h, at 10 µM, hits give high values
Sequence (P18146 whole entry, looked up): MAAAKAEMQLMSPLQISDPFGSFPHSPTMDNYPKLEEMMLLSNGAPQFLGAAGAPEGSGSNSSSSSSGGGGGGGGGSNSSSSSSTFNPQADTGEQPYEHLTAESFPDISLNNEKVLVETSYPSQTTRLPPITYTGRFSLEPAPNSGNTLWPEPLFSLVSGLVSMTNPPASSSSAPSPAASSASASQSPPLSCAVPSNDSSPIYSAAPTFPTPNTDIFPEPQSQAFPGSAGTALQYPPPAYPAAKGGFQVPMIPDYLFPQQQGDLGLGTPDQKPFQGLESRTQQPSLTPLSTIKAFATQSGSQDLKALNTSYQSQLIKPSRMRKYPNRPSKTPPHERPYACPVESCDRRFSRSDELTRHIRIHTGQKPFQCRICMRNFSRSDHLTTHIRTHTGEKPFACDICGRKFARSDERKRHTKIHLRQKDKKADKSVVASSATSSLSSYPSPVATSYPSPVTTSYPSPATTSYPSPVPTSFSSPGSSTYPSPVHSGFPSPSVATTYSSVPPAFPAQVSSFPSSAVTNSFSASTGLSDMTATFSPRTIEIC

inhibition | SMILES
37% | CN(C(=O)CNC(=O)/C=C/c1cccc(Cl)c1)C1CCS(=O)(=O)CC1
-24.8% (inactive) | CN(C(=O)CNC(=O)/C=C/c1cccc(Cl)c1)C1CCS(=O)(=O)C1 (stereo not drawn)
-14.8% (inactive) | CN(C(=O)COC(=O)/C=C/c1cccc([N+](=O)[O-])c1)C1CCS(=O)(=O)C1 (stereo not drawn)

Source: PubChem BioAssay AID588665 (The Scripps Research Institute Molecular Screening Center, 2011)
